Experimental data published in ChEMBL document CHEMBL1201862, “PubChem BioAssay data set” (2004).
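Dose response: 5 concentrations. Exposure: 48 h. Format: 96-well plates. Endpoint: linear interpolation; highest concentration if not reached. GI50 marks 50% less growth.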 The source made the active and inactive calls. Rule as the data show it: active = GI50 up to about 1.1 µM and inactive = higher.

Tests used:
Experiment in all cases: growth of human tumour cells (NCI), 48 h
DLD-1 = system: DLD-1
KM-20L2 = system: KM-20L2
LXFL 529 = system: LXFL 529
RXF 631 = system: RXF 631
SNB-78 = system: SNB-78
DMS-273 = system: DMS-273
XF498 = system: XF498
DMS-114 = system: DMS-114
HOP-18 = system: HOP-18

SMILES | GI50 (DLD-1) | GI50 (KM-20L2) | GI50 (LXFL 529) | GI50 (RXF 631) | GI50 (SNB-78) | GI50 (DMS-273) | GI50 (XF498) | GI50 (DMS-114) | GI50 (HOP-18)
CCCCCCCCCCCCCCC(O)C1CCC(C(O)CCC(O)CCCCCC(O)CC2=CC(C)OC2=O)O1 (stereo not given) | 2.31 µM (inactive) | 3.4 µM (inactive) | 2.11 µM (inactive) | 2.94 µM (inactive) | 1.49 µM (inactive) | 1.4 µM (inactive) | 1.12 µM (active) | < 0.01 µM (active) | 
N#CNC(=N)NC(=O)/C=C/C=C/c1ccc(Cl)cc1 | > 100 µM (inactive) | > 100 µM (inactive) | 47.4 µM (inactive) |  | 55.1 µM (inactive) | > 100 µM (inactive) |  | 84.5 µM (inactive) | > 100 µM (inactive)
C[C@]12CCC(=O)C=C1CC[C@@H]1[C@@H]2[C@@H](O)C[C@@]2(C)[C@H]1CC[C@]2(O)C(=O)COC(=O)COCC(=O)O | > 100 µM (inactive) | > 100 µM (inactive) |  |  | 20.9 µM (inactive) | > 100 µM (inactive) | > 100 µM (inactive) | > 100 µM (inactive) | > 100 µM (inactive)
O=C(CCBr)N1CCN(C(=O)CCBr)CC1 [PIPOBROMAN] | 90.2 µM (inactive) | 119 µM (inactive) | 71.6 µM (inactive) | 55.1 µM (inactive) | 114 µM (inactive) | 28.8 µM (inactive) | 66.7 µM (inactive) | 50.6 µM (inactive) | 121 µM (inactive)
CCOC(=O)CNc1nnnn1C1OC(CO)C(O)C1O (stereo not given) | > 100 µM (inactive) | > 100 µM (inactive) | > 100 µM (inactive) |  | > 100 µM (inactive) | > 100 µM (inactive) | > 100 µM (inactive) | > 100 µM (inactive) | 
COC1=CC(=O)[C@]2(C)[C@H](C1=O)C(C)[C@H]2c1ccccc1 (stereo not given in full) | > 100 µM (inactive) |  | > 100 µM (inactive) | > 100 µM (inactive) | > 100 µM (inactive) | > 100 µM (inactive) | > 100 µM (inactive) |  | 
COc1ccc(-c2cc(-c3ccco3)c(C#N)c(=O)[nH]2)cc1 | > 100 µM (inactive) | > 100 µM (inactive) | 44 µM (inactive) | > 100 µM (inactive) | > 100 µM (inactive) | 31 µM (inactive) |  | 79.6 µM (inactive) | 15.9 µM (inactive)
CC(C)(CN1CCCCC1)C(=O)/C=C/c1ccccc1 | 13.7 µM (inactive) | 10.3 µM (inactive) | 16.9 µM (inactive) | 21.1 µM (inactive) | 22.5 µM (inactive) | 13.5 µM (inactive) | 14.7 µM (inactive) | 14.4 µM (inactive) | 
COc1cc(-c2cc(O)c3ccccc3n2)cc(OC)c1OC | > 75 µM (inactive) | > 75 µM (inactive) | > 75 µM (inactive) |  | > 75 µM (inactive) | > 75 µM (inactive) |  | > 75 µM (inactive) | 
COC(=O)C1CCC2(CC1)NC(=O)NC2=O (stereo not given) | > 100 µM (inactive) | > 100 µM (inactive) | > 100 µM (inactive) | > 100 µM (inactive) | > 100 µM (inactive) | > 100 µM (inactive) | > 100 µM (inactive) | > 100 µM (inactive) | > 100 µM (inactive)
CN(C)CCN(C)C(=O)c1cccc2cccc(C(=O)O)c12 | > 100 µM (inactive) | > 100 µM (inactive) | > 100 µM (inactive) | > 100 µM (inactive) | > 100 µM (inactive) | > 100 µM (inactive) | > 100 µM (inactive) | > 100 µM (inactive) | > 100 µM (inactive)
OCC1=CC(NC2CC(CO)C(O)C(O)C2O)C(O)C(O)C1O (stereo not given) | > 100 µM (inactive) |  |  |  |  | > 100 µM (inactive) | 64.9 µM (inactive) | > 100 µM (inactive) | > 100 µM (inactive)
COC(=O)/C=C\C1C(C(=O)OC)C2(C(=O)OC)CCC1(C(=O)OC)N2 (stereo not given) | 3.25 µM (inactive) | 31.9 µM (inactive) | 6.75 µM (inactive) | 20.8 µM (inactive) | 10.2 µM (inactive) | 18.2 µM (inactive) | 19.1 µM (inactive) |  | 15.1 µM (inactive)
CC1(C)OCC(C(O)C2OC(C)(C)OC2/C=N\O)O1 (stereo not given) | > 100 µM (inactive) | > 100 µM (inactive) | > 100 µM (inactive) |  | > 100 µM (inactive) | > 100 µM (inactive) | > 100 µM (inactive) | > 100 µM (inactive) | 37.5 µM (inactive)
